Measured values reported in patent US9296716B2, “Androgen receptor ligands” (THE PROVOST, FELLOWS, FOUNDATION SCHOLARS, & THE OTHER …, priority 2011, dated 2016).

These compounds were tested against T1, AR-LBD wt (Homo sapiens, UniProt P10275) (assay: Lanthascreen TR-FRET AR coactivator (D11-FxxLF) assay, AR-LBD wt). Details: TR-FRET in agonist and antagonist mode.
T1 sequence (P10275 669-900 limits assumed): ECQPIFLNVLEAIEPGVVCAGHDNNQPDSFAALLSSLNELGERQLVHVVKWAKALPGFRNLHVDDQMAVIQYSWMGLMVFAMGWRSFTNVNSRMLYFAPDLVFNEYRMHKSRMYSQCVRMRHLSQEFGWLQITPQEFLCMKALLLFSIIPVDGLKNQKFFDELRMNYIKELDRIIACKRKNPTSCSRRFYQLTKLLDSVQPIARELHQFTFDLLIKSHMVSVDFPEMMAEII
Format: biochemical

type of AR antagonism (full / partial)	Structure (SMILES)
full AR antagonists	C/C(=N\NC(=O)c1cc2ccccc2cc1O)C1C(=O)c2ccccc2C1=O [MDG603]

Same assay, conditions: TR-FRET, D11-FxxLF peptide, DHT = EC80; read-out: Activity (AR wt TR-FRET)

IC50 [µM]	Structure (SMILES)
> 100	CCOc1ccc(/C=N/NC(=O)c2cc3c(ccc4ccccc43)o2)cc1 [MDG512]
> 100	COc1ccccc1/C=N/NC(=O)c1cc2ccccc2cc1O [MDG619]
> 100	O=C(N/N=C/c1cc(Cl)ccc1O)c1ccc2ccccc2c1 [MDG622]
> 100	COc1cc(/C=N/NC(=O)c2cc3ccccc3cc2O)cc(OC)c1O [MDG489, 3-hydroxy-N′-(4-hydroxy-3,5-dimethoxybenzylidene)-2-naphthohydrazide]
> 100	COc1ccccc1/C=N/NC(=O)c1ccc2ccccc2c1O [MDG599]
> 100	O=C(N/N=C/c1cccnc1)c1cc2ccccc2cc1O [MDG482]
> 100	O=C(N/N=C/c1cc2ccccc2cc1O)c1ccc(C(=O)N/N=C/c2cc3ccccc3cc2O)cc1 [MDG602]
> 100	O=C(N/N=C/c1ccc(O)c(Br)c1)c1cc2c(ccc3ccccc32)o1 [MDG500]
> 100	O=C(N/N=C/c1ccc2ccccc2c1)c1cc2ccccc2cc1O [MDG625]
> 100	C/C(=N\NC(=O)c1cc2ccccc2cc1O)c1cc(Cl)ccc1O [MDG621, 3-hydroxy-N′-[(1E)-1-(2-hydroxy-5-chlorophenyl)ethylidene]-2-naphthohydrazide]
> 100	CC(C)(C)c1ccc(O)c(/C=N/NC(=O)c2cc3ccccc3cc2O)c1 [MDG610]
> 100	COc1cc(/C=N/NC(=O)c2cc3c(ccc4ccccc43)o2)c(Br)cc1O [MDG516]
> 100	O=C(N/N=C/c1ccc(OCc2ccccc2)cc1)c1cc2c(ccc3ccccc32)o1 [MDG499]
11.3 ± 2.6	C/C(=N\NC(=O)c1cc2ccccc2cc1O)C1C(=O)c2ccccc2C1=O [MDG603]
> 100	COc1ccc(/C=N/NC(=O)c2cc3c(ccc4ccccc43)o2)cc1O [MDG507]
> 100	CCN(CC)c1ccc(/C=N/NC(=O)c2cc3ccccc3cc2O)cc1 [MDG493]
> 100	O=C(N/N=C/c1ccccc1)c1cc2ccccc2cc1O [MDG628, 3-hydroxy-N′-benzylidene-2-naphthohydrazide]
> 100	COc1ccc(Br)cc1/C=N/NC(=O)c1cc2ccccc2cc1O [MDG620]
> 100	Nc1ccccc1/C=N/NC(=O)c1cc2ccccc2cc1O [MDG632]

IC50 [µM]	Structure (SMILES)
> 100	C/C(=N\NC(=O)c1cc2ccccc2cc1O)c1ccco1 [MDG604]
> 100	CCCOc1ccc(/C=N/NC(=O)c2cc3c(ccc4ccccc43)o2)cc1OC [MDG509]
> 100	COc1cc(Br)cc(/C=N/NC(=O)c2cc3c(ccc4ccccc43)o2)c1O [MDG501]
> 100	CCOc1cc(/C=N/NC(=O)c2cc3ccccc3o2)cc(I)c1OC [MDG598]
> 100	O=C(N/N=C/c1ccc2ccccc2c1)c1ccccc1O [MDG487]
> 100	O=C(N/N=C/c1cccc(OCc2ccccc2)c1)c1cc2ccccc2cc1O [MDG495]
> 100	COc1ccc(/C=N/NC(=O)c2cc3c(ccc4ccccc43)o2)cc1C [MDG504]
> 100	O=C(N/N=C/c1cccc(O)c1O)c1ccccc1O [MDG486]
> 100	COc1c(Cl)cc(/C=N/NC(=O)c2cc3c(ccc4ccccc43)o2)cc1Cl [MDG513]
> 100	O=C(N/N=C/c1ccccc1[N+](=O)[O-])c1cc2ccccc2cc1O [MDG631]
> 100	COc1cc(/C=N/NC(=O)c2cc3c(ccc4ccccc43)o2)cc(Cl)c1OCc1ccccc1 [MDG515]
> 100	CCCOc1ccc(/C=N/NC(=O)c2cc3c(ccc4ccccc43)o2)cc1OCC [MDG510]
> 100	O=C(N/N=C/c1cccc(Cl)c1Cl)c1cc2ccccc2cc1O [MDG496]
> 100	O=C(N/N=C/c1ccc(Cl)c([N+](=O)[O-])c1)c1cc2ccccc2cc1O [MDG623]
> 100	O=C(N/N=C/c1ccc2ccccc2c1O)c1cc2ccccc2cc1O [MDG624]
> 100	CCOc1ccc(/C=N/NC(=O)c2cc3ccccc3cc2O)cc1O [MDG488]
> 100	COc1cc2ccccc2cc1C(=O)N/N=C/c1ccccc1O [MDG600]
> 100	COc1ccc(/C=N/NC(=O)c2cc3ccccc3cc2O)cc1O [MDG494]
> 100	O=C(N/N=C/c1cccc2ccccc12)c1cc2ccccc2cc1O [MDG607]

IC50 [µM]	Structure (SMILES)
> 100	O=C(N/N=C/c1ccccc1C(=O)O)c1cc2ccccc2cc1O [MDG490]
> 100	O=C(C/C=N/C=N/NC(=O)c1ccccc1O)c1ccccc1O [MDG601]
> 100	Cc1ccc(O)c(/C=N/NC(=O)c2cc3ccccc3cc2O)c1 [MDG609]
> 100	C/C(=N\NC(=O)c1cc2ccccc2cc1O)c1ccc2ccccc2c1 [MDG626]
> 100	Cc1cccc(/C=N/NC(=O)c2cc3ccccc3cc2O)c1 [MDG497]
> 100	COc1ccc(/C=N/NC(=O)c2cc3c(ccc4ccccc43)o2)c2ccccc12 [MDG503]
> 100	O=C(N/N=C/c1cc(I)ccc1O)c1cc2ccccc2cc1O [MDG613]
> 100	COc1cc(/C=N/NC(=O)c2cc3c(ccc4ccccc43)o2)cc(OC)c1OC [MDG511]
> 100	O=C(N/N=C/c1cc(Cl)ccc1[N+](=O)[O-])c1cc2ccccc2cc1O [MDG633]
> 200	O=C(N/N=C/c1cccc(Cl)c1O)c1cc2ccccc2cc1O [MDG618, 3-hydroxy-N′-(2-hydroxy-3-chlorobenzylidene)-2-naphthohydrazide]
> 100	COc1cccc(/C=N/NC(=O)c2cc3c(ccc4ccccc43)o2)c1 [MDG505, N′-(3-methoxybenzylidene)naphtho[2,1-b]furan-2-carbohydrazide]
> 100	COc1cc(Cl)cc(/C=N/NC(=O)c2cc3ccccc3cc2O)c1O [MDG615]
> 100	CCOc1c(Cl)cc(/C=N/NC(=O)c2cc3c(ccc4ccccc43)o2)cc1Cl [MDG514]
> 100	O=C(N/N=C(\c1ccccc1)c1ccc2ccccc2c1)c1cc2ccccc2cc1O [MDG627]
> 100	CCOc1cc(/C=N/NC(=O)c2cc3ccccc3cc2O)ccc1O [MDG481]
> 100	O=C(N/N=C/c1cccc(O)c1O)c1ccccc1 [MDG485]
> 100	Cc1ccccc1/C=N/NC(=O)c1cc2ccccc2cc1O [MDG492]
> 100	COc1ccc(C(=O)NNC(=O)c2cc3ccccc3cc2O)cc1 [MDG484]
> 100	CC(C)Oc1ccc(/C=N/NC(=O)c2cc3c(ccc4ccccc43)o2)cc1 [MDG502]
